Test system: Staphylococcus aureus (Smith strain, ATCC™ 13709)
Assay: In vivo antimicrobial efficacy in infected ICR mice
Settings: ip, ICR mice infected i.p., compound i.p. one hour post infection in 1% SDS, mortality recorded for 7 days, read-out: median effective dose (ED50)
Procedure: In vivo efficacy studies were performed on ICR mice (supplied by Charles River Laboratories, Wilmington, Mass.) having a bodyweight of 20±2 g. Mice (38) were inoculated i.p. with an LD90-100 dose (1×10^6 CFU/mouse) of Staphylococcus aureus (Smith strain, ATCC™ 13709) suspended in 0.5 mL of BHI containing 5% mucin. Compound 1 at doses 0.1, 0.5, 1 and 5 mg/kg (formulated in 1% SDS for a total volume of 5 μL/g of weight) was administered i.p. one hour post infection (5 mice for each concentration). Another group of 5 mice was treated i.v. with a 10 mg/kg dose of Vancomycin. Finally, a group of 3 mice was administered vehicle only. Mortality was recorded for 7 days.

With `CCC(C)c1cc2c(=O)c3ccc4c(OC)c5c(=O)c6c(O)ccc(O)c6c(=O)c5c(O)c4c3c(=O)c2c(=O)n1CC(=O)N1CC(C(=O)O)NC(=O)C1C` (stereo not shown) [Compound 1] as the molecule, how does the ED50 read?
The ED50 was less than 0.1 mg/kg.

Reference: US20060106028A1, “Polycyclic aromatics and derivatives thereof and processes for their preparation” (priority 2004, published 2006)
